Data: article PMC10226046, “Prodrug Strategies for the Development of β-L-5-((E)-2-Bromovinyl)-1-((2S,4S)-2-(hydroxymethyl)-1,3-(dioxolane-4-yl))uracil (L-BHDU) against Varicella Zoster Virus (VZV)” (Journal of Medicinal Chemistry, 2023)
Like-named read-outs stand apart in the source and are kept apart here.

Experiments:
VZV-ORF57-Luc [1] = test: microbe, parasite or virus in culture; settings: Human alphaherpesvirus 3, ARPE-19, cell-free VZV-ORF57-Luc, ARPE-19 cells, 72 hpi, bioluminescence imaging
VZV [2] = settings: 15 mg/kg/day, SCID-hu mouse with human fetal skin xenografts; cited from earlier work
[3] = design: method as in PMID 25051026; settings: measured in various mouse organs; cited from earlier work
VZV-ORF57-Luc [4] = test: microbe, parasite or virus in culture; assay type: cell-based, Varicella zoster virus; settings: Human alphaherpesvirus 3, ARPE-19
[5] = test system: human foreskin fibroblasts (HFFs); design: method as in PMID 25051026; settings: cited from earlier work
[6] = Neutral red dye uptake cytotoxicity assay in ARPE-19 cells; settings: human
VZV-ORF57-ΔTKTS = test: microbe, parasite or virus in culture; assay type: cell-based, Varicella zoster virus; settings: Human alphaherpesvirus 3, ARPE-19
VZV-ORF57-Luc [7] = test system: VZV-ORF57-Luc
[8] = design: method as in PMID 25051026; settings: mice treated with L-BHDU; cited from earlier work
[9] = mouse, in vivo; cited from earlier work
VZV-ORF57-ΔTK = test: microbe, parasite or virus in culture; assay type: cell-based, Varicella zoster virus; settings: Human alphaherpesvirus 3, ARPE-19
VZV-ORF57-ΔTS = test: microbe, parasite or virus in culture; assay type: cell-based, Varicella zoster virus; settings: Human alphaherpesvirus 3, ARPE-19
[10] = Oral pharmacokinetic absorption study in BALB/c mice (plasma, LC-MS/MS); assay type: in vivo; settings: both sexes, mouse, analyte L-BHDU in plasma, 11.4 mg/kg L-BHDU oral, BALB/c mice
Procedure: A pharmacokinetic absorption study was performed in BALB/c mice (Charles River). A single equimolar dose of 22.5 mg/kg POM-L-BHDU-MP or 11.4 mg/kg L-BHDU was dissolved in Cremophor–dimethyl sulfoxide (DMSO)–saline (1:1:8) and administered by oral gavage to two groups of mice with equal numbers of male and female mice (N = 15 each male and female).
Plasma was separated from red blood cells and immediately frozen at −80 °C.
This animal protocol #282 was approved by the IACUC at SUNY Upstate Medical University, which has been fully accredited by AAALAC since 7/31/1999. This method was previously used to evaluate L-BHDU effects on 5-fluorouracil metabolism.[16] Briefly, a single equimolar dose of 22.5 mg/kg POM-L-BHDU-MP or 11.4 mg/kg L-BHDU was dissolved in Cremophor–DMSO–saline (1:1:8) and administered by oral gavage to two groups of BALB/c mice (Charles River) with equal numbers of male and female mice (N = 15 each male and female). Six untreated mice were used for blank controls and were labeled time 0. At 20, 40, 60, and 120 min, three mice from the POM-L-BHDU-MP group and three mice from the L-BHDU group were anesthetized with inhaled isoflurane and then exsanguinated by cardiac puncture. Blood samples were collected into a tube containing heparin. Plasma was separated from red blood cells by centrifugation at 10,000 rpm for 5 min. Plasma was transferred to a new tube and immediately frozen at −80 °C.
Plasma samples were thawed, and exactly 0.95 mL was removed for analysis. The internal standard azidothymidine was added to mouse plasma samples at a final concentration of 20 ng/mL. Proteins were precipitated from the plasma by adding 2× volumes of methanol, then the samples were clarified by centrifugation. The supernatants were dried using an N-EVAP 116 analytical nitrogen evaporator and then reconstituted with 50% methanol in water. LC-MS/MS was used to analyze the concentrations of POM-L-BHDU-MP, L-BHDU, and L-BHDU-MP. Calibration curves were made using BALB/c mouse plasma (Innovative Research, Inc. Novi MI) prior to analyzing the experimental samples.
The primary stock solutions for the calibration were prepared at 0.5 mg/mL for L-BHDU, 1 mg/mL for POM-L-BHDU-MP, and 1 mg/mL for L-BHDU-MP. The primary stock solutions were diluted to working solutions that were in turn used to spike the biological matrix of interest. L-BHDU calibration points were 100.0, 400.0, 800.0, 1000.0, 4000.0, 6000.0, 8000.0, 10,000.0, and 12,000.0 ng/mL. L-BHDU-MP calibration points were 100.0, 200.0, 400.0, 800.0, 1000.0, 2000.0, 4000.0, 6000.0, and 8000.0 ng/mL. The ISTD working solution of AZT was prepared at 20 ng/mL. The standard stock solutions were stored in −80 °C freezer until used. […] The samples were analyzed in a negative ESI mode. […]

VZV [11] = test system: VZV; design: method as in PMID 25051026; settings: VZV in human foreskin fibroblasts (HFFs); cited from earlier work
[12] = selectivity index = CC50/EC50, ARPE-19 cells

SMILES | EC50 (VZV-ORF57-Luc [1]) | effect on VZV replication (VZV [2]) | brain penetration [3] | EC50 (VZV-ORF57-Luc [4]) | not cytotoxic up to ([5]; HFFs) | CC50 at 72 h [6] | EC50 (VZV-ORF57-ΔTKTS) | SI (CC50/EC50) (VZV-ORF57-Luc [7]) | SI (CC50/EC50) (VZV-ORF57-Luc [7]; [12]) | 5-FU accumulation in treated mice [8] | well tolerated up to (dose) [9] | EC50 (VZV-ORF57-ΔTK) | EC50 (VZV-ORF57-ΔTS) | Cmax at 2 h [10] | Tmax at 2 h [10] | AUC at 2 h ([10]; 0 to 120 min) | EC50 (VZV [11]) | CC50 [5] | EC50 (VZV-ORF57-Luc [7]; cell-free VZV-ORF57-Luc, ARPE-19 cells, 72 hpi, bioluminescence imaging) | SI (CC50/EC50) (VZV-ORF57-Luc [7]; selectivity index = CC50/EC50, ARPE-19 cells, listed as 17)
O=c1[nH]c(=O)n([C@@H]2CO[C@H](CO)O2)cc1/C=C/Br [L-BHDU (1), β-L-5-((E)-2-bromovinyl)-1-((2S,4S)-2-(hydroxymethyl)-1,3-(dioxolane-4-yl))uracil] | 25.8 nM | effectively reduced VZV replication | did not penetrate the brain | 180 nM | up to 200 μM | > 100000 nM | > 2000 nM | >3878 | >3878 | did not accumulate | up to 150 mg/kg | > 2000 nM | 28 nM | 7100 ng/mL | 2 h | 12700 ng·h/mL | – | – | – | –
CC(C)[C@@H](N)C(=O)OC[C@H]1OC[C@@H](n2cc(/C=C/Br)c(=O)[nH]c2=O)O1.Cl [L-BHDU-L-valine (17), L-BHDU-5′-O-L-valyl Ester Hydrochloride] | 30 nM | – | – | – | – | > 100000 nM | – | >3322 | >3322 | – | – | – | – | – | – | – | 30 nM | > 200000 nM | 30.1 nM | > 3322
